Measured values from PubChem BioAssay (NCI).
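Dose response: 5 concentrations. Exposure: 48 h. Format: 96-well plates. Endpoint: linear interpolation; highest concentration if not reached. Here, GI50 denotes the concentration required for 50% inhibition of growth. TGI marks complete inhibition of growth.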

How the values were obtained:
Assay in all cases: NCI anticancer screen, dose series, 48 h
HOP-92 NSCLC = system: HOP-92 NSCLC
SK-MEL-2 melanoma = system: SK-MEL-2 melanoma
KM12 colon = system: KM12 colon
SF-268 CNS = system: SF-268 CNS
M14 melanoma = system: M14 melanoma
U251 CNS = system: U251 CNS
K-562 leukemia = system: K-562 leukemia
MOLT-4 leukemia = system: MOLT-4 leukemia
CCRF-CEM leukemia = system: CCRF-CEM leukemia
A498 renal = system: A498 renal
A549 NSCLC = system: A549 NSCLC
HL-60(TB) leukemia = system: HL-60(TB) leukemia
EKVX NSCLC = system: EKVX NSCLC
CAKI-1 renal = system: CAKI-1 renal
SF-295 CNS = system: SF-295 CNS
UACC-257 melanoma = system: UACC-257 melanoma
RPMI-8226 leukemia = system: RPMI-8226 leukemia
UO-31 renal = system: UO-31 renal
RXF 393 renal = system: RXF 393 renal
HT29 colon = system: HT29 colon
COLO 205 colon = system: COLO 205 colon
IGROV1 ovarian = system: IGROV1 ovarian
HCT-15 colon = system: HCT-15 colon
BT-549 breast = system: BT-549 breast
NCI-H226 lung = system: NCI-H226 lung
SN12C renal = system: SN12C renal
MDA-MB-435 = system: MDA-MB-435
DU-145 prostate = system: DU-145 prostate
MALME-3M melanoma = system: MALME-3M melanoma

## Oc1ccc(N=Nc2nccs2)c(O)c1
HOP-92 NSCLC
  GI50: 3.34 µM
  TGI: 24.7 µM
SK-MEL-2 melanoma
  GI50: 17.1 µM
  TGI: 60.3 µM
KM12 colon
  GI50: 4.57 µM
  TGI: 22.7 µM
SF-268 CNS
  GI50: 4.35 µM
  TGI: 38.7 µM
M14 melanoma
  GI50: 11 µM
  TGI: 48.4 µM
U251 CNS
  GI50: 4.5 µM
  TGI: 35.2 µM
K-562 leukemia
  GI50: 3.58 µM
  TGI: 34.3 µM
MOLT-4 leukemia
  GI50: 3.1 µM
  TGI: 20.3 µM
CCRF-CEM leukemia
  GI50: 2.48 µM
  TGI: 8.99 µM
A498 renal
  GI50: 18.8 µM
  TGI: 40.5 µM
A549 NSCLC
  GI50: 5.11 µM
  TGI: 54.4 µM
HL-60(TB) leukemia
  GI50: 3.41 µM
  TGI: > 100 µM
EKVX NSCLC
  GI50: 2.1 µM
  TGI: 15.3 µM
CAKI-1 renal
  GI50: 0.417 µM
  TGI: 2.37 µM
SF-295 CNS
  GI50: 2.73 µM
  TGI: 15.1 µM
UACC-257 melanoma
  GI50: 16.4 µM
  TGI: 60.1 µM
RPMI-8226 leukemia
  GI50: 1.62 µM
  TGI: 4.91 µM
UO-31 renal
  GI50: 3.51 µM
  TGI: 21.8 µM
RXF 393 renal
  GI50: 5.65 µM
  TGI: 30.1 µM
HT29 colon
  GI50: 3.61 µM
  TGI: 23.1 µM
COLO 205 colon
  GI50: 3.21 µM
  TGI: 12 µM
IGROV1 ovarian
  GI50: 4.14 µM
  TGI: 15.2 µM
HCT-15 colon
  GI50: 2.85 µM
  TGI: 14.9 µM
BT-549 breast
  GI50: 16.1 µM
  TGI: 57.6 µM
NCI-H226 lung
  GI50: 12.4 µM
  TGI: 45.1 µM
SN12C renal
  GI50: 9.42 µM
  TGI: 38.7 µM
MDA-MB-435
  GI50: 4.77 µM
  TGI: 31 µM
DU-145 prostate
  GI50: 5.23 µM
  TGI: 17.1 µM
MALME-3M melanoma
  GI50: 14.7 µM
  TGI: 34.3 µM
